We go through 30 compounds from patent publication US8501770B2 (ArQule, Inc., priority 2009, dated 2013).

Sequence of Full-length inactive AKT1 (P31749 whole entry): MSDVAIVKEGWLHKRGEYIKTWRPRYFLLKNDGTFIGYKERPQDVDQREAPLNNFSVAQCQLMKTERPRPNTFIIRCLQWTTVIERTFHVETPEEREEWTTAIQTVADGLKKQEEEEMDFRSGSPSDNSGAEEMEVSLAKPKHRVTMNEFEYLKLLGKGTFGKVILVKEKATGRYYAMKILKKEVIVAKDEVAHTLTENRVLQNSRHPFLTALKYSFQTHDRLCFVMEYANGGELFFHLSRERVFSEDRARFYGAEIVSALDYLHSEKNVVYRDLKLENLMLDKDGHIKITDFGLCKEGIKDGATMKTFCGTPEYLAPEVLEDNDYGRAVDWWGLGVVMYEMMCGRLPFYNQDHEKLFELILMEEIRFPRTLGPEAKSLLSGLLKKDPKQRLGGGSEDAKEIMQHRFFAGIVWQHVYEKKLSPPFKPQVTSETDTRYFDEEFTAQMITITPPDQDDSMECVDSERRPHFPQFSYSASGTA

The assay has as its target Full-length inactive AKT1 (Homo sapiens, UniProt P31749). Put plainly: Inactive Akt Alpha Screen Assay. It counts as biochemical. Conditions: AlphaScreen assay (values not marked with *); read-out: Akt1 IC50, (AlphaScreen) (μM) (or if marked with “*” HTRF assay). An outline of the steps:
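AlphaScreen read-out (excitation 640 nm, emission 570 nm) after 90 min incubation at room temperature in the dark. Signal comes from crosstide phosphorylation by AKT1, which was activated by added PDK1, MAPKAPK2, ATP and lipid vesicles, captured via phospho-AKT substrate antibody and streptavidin beads.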
In general terms: Alpha assays give light when donor and acceptor beads are brought close together.
A word on the IC50: it is the point on the concentration scale where inhibition reaches its midpoint. In the case of `CNC(=O)c1cc(F)cc(-c2ccc3nc(-c4cccnc4N)n(-c4ccc(C5(N)CCC5)cc4)c3n2)c1` [Example 432, 3-{3-[4-(1-aminocyclobutyl)phenyl]-2-(2-aminopyridin-3-yl)-3H-imidazo[4,5-b]pyridin-5-yl}-5-fluoro-N-methylbenzamide], the IC50 was 0.0064 µM. Consider `CN1CCOc2cc(-c3ccc4nc(-c5cccnc5N)n(-c5ccc(C6(N)CCC6)cc5)c4n3)ccc21` [Example 433, 3-{3-[4-(1-aminocyclobutyl)phenyl]-5-(4-methyl-3,4-dihydro-2H-1,4-benzoxazin-7-yl)-3H-imidazo[4,5-b]pyridin-2-yl}pyridin-2-amine], for which the half-inhibitory concentration (IC50) amounted to 0.0018 µM. With `Nc1ncccc1-c1nc2ccc(-c3ccc(O)c(F)c3)nc2n1-c1ccc(C2(N)CCC2)cc1` [Example 434, 4-{3-[4-(1-aminocyclobutyl)phenyl]-2-(2-aminopyridin-3-yl)-3H-imidazo[4,5-b]pyridin-5-yl}-2-fluorophenol], the IC50 was determined as 0.005 µM. Regarding `Nc1ncccc1-c1nc2ccc(-c3cc(O)cc(F)c3)nc2n1-c1ccc(C2(N)CCC2)cc1` [Example 435, 3-{3-[4-(1-aminocyclobutyl)phenyl]-2-(2-aminopyridin-3-yl)-3H-imidazo[4,5-b]pyridin-5-yl}-5-fluorophenol], the IC50 was found to be 0.01 µM. For the compound `Nc1ncccc1-c1nc2ccc(-c3ccc(F)c(O)c3)nc2n1-c1ccc(C2(N)CCC2)cc1` [Example 436, 5-{3-[4-(1-aminocyclobutyl)phenyl]-2-(2-aminopyridin-3-yl)-3H-imidazo[4,5-b]pyridin-5-yl}-2-fluorophenol], the IC50 amounted to 0.0078 µM.

As to `Nc1ncccc1-c1nc2ccc(-c3cc(O)ccc3F)nc2n1-c1ccc(C2(N)CCC2)cc1` [Example 437, 3-{3-[4-(1-aminocyclobutyl)phenyl]-2-(2-aminopyridin-3-yl)-3H-imidazo[4,5-b]pyridin-5-yl}-4-fluorophenol], the concentration for half-maximal inhibition (IC50) is 0.014 µM. On to `CN1C(=O)COc2ccc(-c3ccc4nc(-c5cccnc5N)n(-c5ccc(C6(N)CCC6)cc5)c4n3)cc21` [Example 438, 6-{3-[4-(1-aminocyclobutyl)phenyl]-2-(2-aminopyridin-3-yl)-3H-imidazo[4,5-b]pyridin-5-yl}-4-methyl-2H-1,4-benzoxazin-3(4H)-one], for which the IC50 worked out at 0.0079 µM. For the compound `Nc1ncccc1-c1nc2ccc(-c3ccnc(N4CCOCC4)c3)nc2n1-c1ccc(C2(N)CCC2)cc1` [Example 439, 3-{3-[4-(1-aminocyclobutyl)phenyl]-5-(2-morpholin-4-ylpyridin-4-yl)-3H-imidazo[4,5-b]pyridin-2-yl}pyridin-2-amine], the IC50 was 0.0026 µM.

Turning to `CNC(=O)c1cc(-c2ccc3nc(-c4cccnc4N)n(-c4ccc(C5(N)CCC5)cc4)c3n2)ccc1F` [Example 440, 5-{3-[4-(1-aminocyclobutyl)phenyl]-2-(2-aminopyridin-3-yl)-3H-imidazo[4,5-b]pyridin-5-yl}-2-fluoro-N-methylbenzamide], the 50% inhibitory concentration (IC50) is 0.0054 µM.

Regarding `CCNC(=O)c1cccc(-c2ccc3nc(-c4cccnc4N)n(-c4ccc(C5(N)CCC5)cc4)c3n2)c1` [Example 441, 3-{3-[4-(1-aminocyclobutyl)phenyl]-2-(2-aminopyridin-3-yl)-3H-imidazo[4,5-b]pyridin-5-yl}-N-ethylbenzamide], the IC50 was 0.0066 µM. The value for `Nc1ncccc1-c1nc2ccc(-c3cccc4[nH]ncc34)nc2n1-c1ccc(C2(N)CCC2)cc1` [Example 442, 3-{3-[4-(1-aminocyclobutyl)phenyl]-5-(1H-indazol-4-yl)-3H-imidazo[4,5-b]pyridin-2-yl}pyridin-2-amine] was 0.0049 µM.

Turning to `Cc1ccc(-c2ccc3nc(-c4cccnc4N)n(-c4ccc(C5(N)CCC5)cc4)c3n2)cc1O` [Example 443, 5-{3-[4-(1-aminocyclobutyl)phenyl]-2-(2-aminopyridin-3-yl)-3H-imidazo[4,5-b]pyridin-5-yl}-2-methylphenol], the IC50 was found to be 0.012 µM.

With `COc1cccc(-c2ccc3nc(-c4cccnc4N)n(-c4ccc(C5(N)CCC5)cc4)c3n2)c1C#N` [Example 444, 2-{3-[4-(1-aminocyclobutyl)phenyl]-2-(2-aminopyridin-3-yl)-3H-imidazo[4,5-b]pyridin-5-yl}-6-methoxybenzonitrile], the IC50 turned out to be 0.0068 µM. `Nc1ncccc1-c1nc2ccc(-c3cccc(O)c3F)nc2n1-c1ccc(C2(N)CCC2)cc1` [Example 445, 3-{3-[4-(1-aminocyclobutyl)phenyl]-2-(2-aminopyridin-3-yl)-3H-imidazo[4,5-b]pyridin-5-yl}-2-fluorophenol]: the IC50 was 0.014 µM.

As for `Nc1ncccc1-c1nc2ccc(-c3c[nH]c4ccncc34)nc2n1-c1ccc(C2(N)CCC2)cc1` [Example 446, 3-{3-[4-(1-aminocyclobutyl)phenyl]-5-(1H-pyrrolo[3,2-c]pyridin-3-yl)-3H-imidazo[4,5-b]pyridin-2-yl}pyridin-2-amine], the IC50 stood at 0.0089 µM.

Turning to `Nc1ncccc1-c1nc2ccc(-c3ccc(O)nc3)nc2n1-c1ccc(C2(N)CCC2)cc1` [Example 447, 5-{3-[4-(1-aminocyclobutyl)phenyl]-2-(2-aminopyridin-3-yl)-3H-imidazo[4,5-b]pyridin-5-yl}pyridin-2-ol], the IC50 is 0.045 µM. The value for `Nc1ncccc1-c1nc2ccc(-c3ccnc(O)c3)nc2n1-c1ccc(C2(N)CCC2)cc1` [Example 448, 4-{3-[4-(1-aminocyclobutyl)phenyl]-2-(2-aminopyridin-3-yl)-3H-imidazo[4,5-b]pyridin-5-yl}pyridin-2-ol] was 0.0039 µM; that for `Nc1ncccc1-c1nc2ccc(-c3cccc(N4CCCC4)c3)nc2n1-c1ccc(C2(N)CCC2)cc1` [Example 449, 3-{3-[4-(1-aminocyclobutyl)phenyl]-5-(3-pyrrolidin-1-ylphenyl)-3H-imidazo[4,5-b]pyridin-2-yl}pyridin-2-amine] was 0.0023 µM; that for `CNC(=O)c1ccc(-c2ccc3nc(-c4cccnc4N)n(-c4ccc(C5(N)CCC5)cc4)c3n2)cc1F` [Example 450, 4-{3-[4-(1-aminocyclobutyl)phenyl]-2-(2-aminopyridin-3-yl)-3H-imidazo[4,5-b]pyridin-5-yl}-2-fluoro-N-methylbenzamide] was 0.0072 µM. The value for `Nc1ncccc1-c1nc2ccc(-c3cccc(N4CCOCC4)n3)nc2n1-c1ccc(C2(N)CCC2)cc1` [Example 451, 3-{3-[4-(1-aminocyclobutyl)phenyl]-5-(6-morpholin-4-ylpyridin-2-yl)-3H-imidazo[4,5-b]pyridin-2-yl}pyridin-2-amine] was 0.0071 µM; that for `Nc1ncccc1-c1nc2ccc(-c3ccc4[nH]ccc4c3)nc2n1-c1ccc(C2(N)CCC2)cc1` [Example 452, 3-{3-[4-(1-aminocyclobutyl)phenyl]-5-(1H-indol-5-yl)-3H-imidazo[4,5-b]pyridin-2-yl}pyridin-2-amine] was 0.0041 µM; that for `Nc1ncccc1-c1nc2ccc(-c3ccc4c(c3)CC(=O)N4)nc2n1-c1ccc(C2(N)CCC2)cc1` [Example 453, 5-{3-[4-(1-aminocyclobutyl)phenyl]-2-(2-aminopyridin-3-yl)-3H-imidazo[4,5-b]pyridin-5-yl}-1,3-dihydro-2H-indol-2-one] was 0.0028 µM. The value for `Nc1ncccc1-c1nc2ccc(-c3cccc4c3CC(=O)N4)nc2n1-c1ccc(C2(N)CCC2)cc1` [Example 454, 4-{3-[4-(1-aminocyclobutyl)phenyl]-2-(2-aminopyridin-3-yl)-3H-imidazo[4,5-b]pyridin-5-yl}-1,3-dihydro-2H-indol-2-one] was 0.0094 µM; that for `CN(C)S(=O)(=O)Nc1cccc(-c2ccc3nc(-c4cccnc4N)n(-c4ccc(C5(N)CCC5)cc4)c3n2)c1` [Example 455, N′-(3-{3-[4-(1-aminocyclobutyl)phenyl]-2-(2-aminopyridin-3-yl)-3H-imidazo[4,5-b]pyridin-5-yl}phenyl)-N,N-dimethylsulfamide] was 0.011 µM; that for `Nc1ncccc1-c1nc2ccc(-c3cccc(-n4cccn4)c3)nc2n1-c1ccc(C2(N)CCC2)cc1` [Example 456, 3-{3-[4-(1-aminocyclobutyl)phenyl]-5-[3-(1H-pyrazol-1-yl)phenyl]-3H-imidazo[4,5-b]pyridin-2-yl}pyridin-2-amine] was 0.0031 µM. Take `Nc1ncccc1-c1nc2ccc(-c3cccc(N4CCC4)c3)nc2n1-c1ccc(C2(N)CCC2)cc1` [Example 457, 3-{3-[4-(1-aminocyclobutyl)phenyl]-5-(3-azetidin-1-ylphenyl)-3H-imidazo[4,5-b]pyridin-2-yl}pyridin-2-amine]: the IC50 stood at 0.0093 µM.

With `Nc1ncccc1-c1nc2ccc(-c3cccc(N4CCCCCC4)c3)nc2n1-c1ccc(C2(N)CCC2)cc1` [Example 458, 3-{3-[4-(1-aminocyclobutyl)phenyl]-5-(3-azepan-1-ylphenyl)-3H-imidazo[4,5-b]pyridin-2-yl}pyridin-2-amine], the IC50 was determined as 0.012 µM. As to `Nc1ncccc1-c1nc2ccc(-c3cccc(N4CCCOCC4)c3)nc2n1-c1ccc(C2(N)CCC2)cc1` [Example 459, 3-{3-[4-(1-aminocyclobutyl)phenyl]-5-[3-(1,4-oxazepan-4-yl)phenyl]-3H-imidazo[4,5-b]pyridin-2-yl}pyridin-2-amine], the IC50 is 0.0077 µM. For `CN(C)C1CCN(c2cccc(-c3ccc4nc(-c5cccnc5N)n(-c5ccc(C6(N)CCC6)cc5)c4n3)c2)CC1` [Example 460, 3-(3-[4-(1-aminocyclobutyl)phenyl]-5-{3-[4-(dimethylamino)piperidin-1-yl]phenyl}-3H-imidazo[4,5-b]pyridin-2-yl)pyridin-2-amine], the IC50 came out at 0.011 µM. On to `Nc1ncccc1-c1nc2ccc(-c3cccc(N4CCC(O)CC4)c3)nc2n1-c1ccc(C2(N)CCC2)cc1` [Example 462, 1-(3-{3-[4-(1-aminocyclobutyl)phenyl]-2-(2-aminopyridin-3-yl)-3H-imidazo[4,5-b]pyridin-5-yl}phenyl)piperidin-4-ol], for which the half-maximal inhibitory concentration (IC50) turned out to be 0.01 µM.
